Laboratory results published in patent US10813944B2, “Cyclodextrins as procoagulants” (STICHTING SANQUIN BLOEDVOORZIENING, priority 2016, dated 2020).

Legend:
[1] = system: thrombin generation in pooled normal plasma; assay: Calibrated Automated Thrombogram thrombin generation assay in pooled normal plasma; assay type: biochemical, human
[2] = system: thrombin generation in pooled normal plasma spiked with anticoagulants; assay: Thrombin generation assay in pooled normal plasma spiked with anticoagulants; assay type: biochemical, human; conditions: 1 pM TF
Description: FIGS. 3-8, 12, 14-19 and 22-27: Pooled normal plasma was spiked with cyclodextrins (100 μM, unless otherwise indicated) and anticoagulants. The concentrations of the anticoagulants were 100 ng/ml for dabigatran (A), 100 ng/ml for rivaroxaban (B), 60 ng/ml for apixaban (C), 60 ng/ml for edoxaban (D). The plasmas were subjected to thrombin generation analysis as described in the Materials and Methods section with 1 pM tissue factor (TF) as initiator of coagulation.
FIG. 9: Pooled normal plasma was spiked with OKL-1111 (100 μM, unless otherwise indicated (A)) and anticoagulants (B-E). The concentrations of the anticoagulants were 100 ng/ml for dabigatran (B), 100 ng/ml for rivaroxaban (C), 60 ng/ml for apixaban (D), 60 ng/ml for edoxaban (E). The plasmas were subjected to thrombin generation analysis as described in the Materials and Methods section with 1 pM tissue factor (TF) as initiator of coagulation.
FIG. 10: Pooled normal plasma was spiked with OKL-1111 (100 μM) and anticoagulants (A-F). The concentrations of the anticoagulants were 2 μg/ml for fondaparinux (A), 0.4 U/ml for nadroparin (B), 0.1 U/ml for tinzaparin (C), 0.03 U/ml for unfractionated heparin (UFH) (D), 0.5 U/ml for hirudin (E) and 10 μg/ml for bivalirudin (F). The plasmas were subjected to thrombin generation analysis as described in the Materials and Methods section with 1 pM tissue factor (TF) as initiator of coagulation.
(§1) The Calibrated Automated Thrombogram® assays the generation of thrombin in clotting plasma using a microtiter plate reading fluorometer (Fluoroskan Ascent, ThermoLab systems, Helsinki, Finland) and Thrombinoscope® software (Thrombinoscope BV, Maastricht, The Netherlands). The assay was carried out as described by Hemker et al. (Pathofysiol. IIaemost. Thromb. 2003, 33, 4-15), and the Thrombinoscope® manual. Coagulation was triggered by recalcification in the presence of 1 or 5 pM recombinant human tissue factor (Innovin®, Siemens, Marburg, Germany), 4 μM phospholipids, and 417 μM fluorogenic substrate Z-Gly-Gly-Arg-AMC (Bachem, Bubendorf, Switzerland). Fluorescence was monitored using the Fluoroskan Ascent fluorometer (ThermoLabsystems, Helsinki, Finland), and the lag time, peak thrombin, velocity index and area under the curve (ETP) were calculated using the Thrombinoscope® software (Thrombinoscope BV).

[3] = system: plasma deficient in coagulation factor VIII; assay: Thrombin generation assay in plasma deficient in coagulation factor VIII; assay type: biochemical, human
Description: FIG. 20: Plasma deficient in coagulation factor VIII was spiked with cyclodextrin OKL-1111 (A), OKL-1180 (B), and OKL-1187 (C) at the indicated concentrations.
as §1

[4] = system: plasma deficient in coagulation factor IX; assay: Thrombin generation assay in plasma deficient in coagulation factor IX; assay type: biochemical, human
Description: as §1

[5] = system: normal human plasma pretreated with inhibitory antibodies against factor XI; assay: Thrombin generation in normal plasma spiked with inhibitory antibodies against factor XI; assay type: biochemical; conditions: mix of #203 and #175, 75 μg/ml; 1 pM TF
Description: as §1
Normal plasma was spiked with inhibitory antibodies against factor VIII (Sanquin, VK34, 14 μg/ml), factor IX (Sanquin, 5F5, 20 μg/ml) or factor XI (Sanquin, mix of #203 and #175, 75 μg/ml). The effect of OKL-1111 was tested in thrombin generation assay using 1 pM tissue factor (TF). This model is representative for hemophilia A, B and C patients that have developed inhibitory antibodies against plasma-derived or recombinant factor VIII or IX or XI they are treated with.

[6] = system: VKA plasma; assay: Thrombin generation in plasma of individuals taking vitamin K antagonists (VKA plasma); assay type: biochemical, human; conditions: two intensities of treatment (INR); 1 pM TF
Source text: FIG. 11: Plasma was used from individuals taking vitamin K-antagonists (VKA plasma). Two different intensities of treatment (given as INR) were available, as depicted in (A) and (B). The plasmas were subjected to thrombin generation analysis as described in the Materials and Methods section with 1 pM tissue factor (TF) as initiator of coagulation.
as §1

[7] = system: Hemophilia A mice; assay: In vivo vena saphena bleeding model in hemophilia A mice
Source text: FIG. 30: Effect of OKL-1111 and OKL-1187 on coagulation in mouse hemophilia A assay.
All animal protocols were approved by the Institutional Animal Care and Use Committee of the University of North Carolina. C57BL6/J mice were purchased from Charles Rivers Laboratories (Willmington, Mass.). Bleeding studies were done essentially as previously described Pastoft et al. (Haemophilia 2012; 18:782-8). Mice were anesthetized with isoflurane throughout all procedures. The hair on the ventral side of both hind limbs was removed. The animals were placed supine on a temperature and ECG monitoring board. The paws were gently restrained by looping soft polyethylene tubing around them and attaching the tubing to the ECG board. The skin on the left and right ventral hind limb was incised which exposes a length of the saphenous neurovascular bundle; the bundle was covered with normal saline to prevent drying. To assess haemostasis, the right saphenous vein was transected by piercing it with a 23-G needle followed by a longitudinal incision made in the distal portion of the vessel. Blood was gently wicked away until haemostasis occurred. The clot was then removed to restart bleeding and the blood was again wicked away until haemostasis occurs again. […] Two parameters were measured: 1) the number of times that haemostasis occurs in a 30 minute period, and 2) the time required for each haemostasis. […]

[8] = normal plasma, versus absence of cyclodextrin

SMILES: O=C(O)CCCCCSCC1OC2OC3C(CSCCCCCC(=O)O)OC(OC4C(CSCCCCCC(=O)O)OC(OC5C(CSCCCCCC(=O)O)OC(OC6C(CSCCCCCC(=O)O)OC(OC7C(CSCCCCCC(=O)O)OC(OC8C(CSCCCCCC(=O)O)OC(OC9C(CSCCCCCC(=O)O)OC(OC1C(O)C2O)C(O)C9O)C(O)C8O)C(O)C7O)C(O)C6O)C(O)C5O)C(O)C4O)C(O)C3O (stereo not drawn) [OKL-1111]
- procoagulant effect in normal plasma ([1]; no anticoagulant, cyclodextrin 100 μM unless otherwise indicated, 1 pM TF): very strong procoagulant effects
- lag time [1, 8]: considerably shorter
- peak thrombin [1, 8]: largely increased
- restoring thrombin generation in plasma anticoagulated with unfractionated heparin ([2]; UFH 0.03 U/ml, OKL-1111 100 μM): capable of restoring thrombin generation
- effect on the anticoagulant effect of apixaban ([2]; apixaban 60 ng/ml, cyclodextrin 100 μM): restoration of thrombin generation to levels far above that of non-anticoagulated plasma
- restoring thrombin generation in plasma anticoagulated with bivalirudin ([2]; bivalirudin 10 μg/ml, OKL-1111 100 μM): capable of restoring thrombin generation
- effect on the anticoagulant effect of dabigatran ([2]; dabigatran 100 ng/ml, cyclodextrin 100 μM): restoration of thrombin generation to levels far above that of non-anticoagulated plasma
- effect on the anticoagulant effect of edoxaban ([2]; edoxaban 60 ng/ml, cyclodextrin 100 μM): restoration of thrombin generation to levels far above that of non-anticoagulated plasma
- restoring thrombin generation in plasma anticoagulated with pentasaccharide (arixtra) ([2]; fondaparinux 2 μg/ml, OKL-1111 100 μM): capable of restoring thrombin generation
- restoring thrombin generation in plasma anticoagulated with hirudin ([2]; hirudin 0.5 U/ml, OKL-1111 100 μM): capable of restoring thrombin generation
- restoring thrombin generation in plasma anticoagulated with low molecular weight heparin ([2]; nadroparin 0.4 U/ml, tinzaparin 0.1 U/ml, OKL-1111 100 μM): capable of restoring thrombin generation
- effect on the anticoagulant effect of rivaroxaban ([2]; rivaroxaban 100 ng/ml, cyclodextrin 100 μM): restoration of thrombin generation to levels far above that of non-anticoagulated plasma
- procoagulant effect in factor VIII deficient plasma [3]: stimulate coagulation significantly
- procoagulant activity in factor IX deficient plasma [4]: stimulate coagulation significantly
- thrombin generation in plasma with inhibitory antibodies against factor XI [5]: concentration-dependently stimulated thrombin generation
- thrombin generation in plasma of patients using vitamin K antagonists [6]: could be improved
- hemostasis compared to factor VIII alone ([7]; factor VIII 2.5 IU/kg plus OKL-1111 1 μmol/kg): significantly higher
- number of clots formed over a 30 minute period ([7]; factor VIII 2.5 IU/kg plus OKL-1111 1 μmol/kg (designed to give 25 μM in plasma)): 7-9 clots
